# Source: US10123993B2, “Cyclic ureas as inhibitors of rock” (BRISTOL-MYERS SQUIBB COMPANY, priority 2015, dated 2018)
# Structures can show the parent of a compound that is named as a salt.
# Molecular target: ROCK2 (Homo sapiens, UniProt O75116)
# Test: ROCK2 kinase inhibition assay (Caliper LABCHIP, FITC peptide substrate)
# Format: biochemical
# Conditions: 5 μM ATP, 1.5 μM peptide substrate; value ranges
# Procedure, shortened: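 Rho kinase with 5 μM ATP and 1.5 μM FITC-AHA-AKRRRLSSLRA-OH peptide in HEPES pH 7.5, 20 mM MgCl2, 0.015% Brij-35, 4 mM DTT, DMSO <2%. EDTA stop; phospho and non-phospho peptide separated on LabChip. IC50 from dose-response fit.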
# Sequence of ROCK2 (O75116 whole entry, species assumed): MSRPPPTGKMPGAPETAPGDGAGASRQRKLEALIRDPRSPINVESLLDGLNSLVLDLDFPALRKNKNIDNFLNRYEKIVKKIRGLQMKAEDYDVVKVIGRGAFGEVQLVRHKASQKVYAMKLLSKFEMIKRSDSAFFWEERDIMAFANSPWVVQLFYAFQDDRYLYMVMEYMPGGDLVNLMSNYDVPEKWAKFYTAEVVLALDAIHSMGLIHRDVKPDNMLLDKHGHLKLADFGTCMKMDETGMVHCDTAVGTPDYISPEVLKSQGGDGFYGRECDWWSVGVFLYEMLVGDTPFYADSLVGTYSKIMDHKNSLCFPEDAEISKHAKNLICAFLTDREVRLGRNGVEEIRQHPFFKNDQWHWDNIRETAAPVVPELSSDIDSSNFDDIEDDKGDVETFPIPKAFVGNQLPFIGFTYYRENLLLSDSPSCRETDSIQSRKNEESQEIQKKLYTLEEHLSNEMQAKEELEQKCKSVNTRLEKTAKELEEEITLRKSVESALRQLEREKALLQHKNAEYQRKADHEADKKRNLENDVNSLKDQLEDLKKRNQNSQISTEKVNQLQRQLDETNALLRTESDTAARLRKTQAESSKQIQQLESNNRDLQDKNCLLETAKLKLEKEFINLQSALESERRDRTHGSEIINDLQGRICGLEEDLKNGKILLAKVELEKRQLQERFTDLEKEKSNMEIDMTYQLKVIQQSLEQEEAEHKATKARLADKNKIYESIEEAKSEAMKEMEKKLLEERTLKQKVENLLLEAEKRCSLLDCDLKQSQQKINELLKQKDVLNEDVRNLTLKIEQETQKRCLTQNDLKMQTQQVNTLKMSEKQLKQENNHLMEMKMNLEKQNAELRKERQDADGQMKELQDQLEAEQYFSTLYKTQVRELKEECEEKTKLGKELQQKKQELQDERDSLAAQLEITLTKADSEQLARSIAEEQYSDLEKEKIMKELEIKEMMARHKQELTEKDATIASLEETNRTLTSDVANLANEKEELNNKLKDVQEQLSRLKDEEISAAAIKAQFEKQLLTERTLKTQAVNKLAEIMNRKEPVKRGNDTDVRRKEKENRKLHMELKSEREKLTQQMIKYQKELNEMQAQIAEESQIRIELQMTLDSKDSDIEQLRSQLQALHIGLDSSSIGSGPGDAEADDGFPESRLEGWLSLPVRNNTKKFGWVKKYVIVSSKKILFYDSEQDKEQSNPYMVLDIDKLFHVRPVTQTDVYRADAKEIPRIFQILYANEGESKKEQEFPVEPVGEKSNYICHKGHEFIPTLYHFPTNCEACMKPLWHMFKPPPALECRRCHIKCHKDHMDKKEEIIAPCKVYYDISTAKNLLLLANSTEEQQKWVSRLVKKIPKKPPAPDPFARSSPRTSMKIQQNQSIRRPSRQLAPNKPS
row,Compound,IC50 [µM]
1,"COc1cccc(CN2CCN(c3ccc(-c4ccnc(F)c4)cc3)C2=O)c1 [Example 54, 1-(4-(2-fluoropyridin-4-yl)phenyl)-3-(3-methoxybenzyl)imidazolidin-2-one]",0.0201 to 0.2
2,"COc1cc(F)cc(C(C)N2CCN(c3ccc(-c4cn[nH]c4)cc3)C2=O)c1 (single isomer, unassigned) [Example 198, 1-(4-(1H-pyrazol-4-yl)-phenyl)-3-(1-(3-fluoro-5-methoxy-phenyl)ethyl) imidazolidin-2-one]",0.2 to 2
3,"COc1cc(CN2CCN(c3ccc(-c4cn[nH]c4)c(OC)n3)C2=O)ccc1F [Example 214, 1-(4-fluoro-3-methoxybenzyl)-3-(6-methoxy-5-(1H-pyrazol-4-yl)pyridin-2-yl)imidazolidin-2-one]",< 0.002
4,"COc1cccc(C(CO)N2CCN(c3ccc(-c4cn[nH]c4)cc3)C2=O)c1 (single isomer, unassigned) [Example 155, 1-(4-(1H-Pyrazol-4-yl)phenyl)-3-(2-hydroxy-1-(3-methoxyphenyl)ethyl)imidazolidin-2-one]",< 0.002
5,"COc1cc(N2CC(CO)N(Cc3ccccc3)C2=O)ccc1-c1cn[nH]c1 (stereo not shown) [Example 41, 3-Benzyl-4-(hydroxymethyl)-1-(3-methoxy-4-(1H-pyrazol-4-yl)phenyl)imidazolidin-2-one]",0.0021 to 0.02
6,"COc1nc(N2CCN(Cc3ccc(F)cc3F)C2=O)ccc1-c1cn[nH]c1 [Example 245, 1-(2,4-difluorobenzyl)-3-(6-methoxy-5-(1H-pyrazol-4-yl)pyridin-2-yl)imidazolidin-2-one]",0.0201 to 0.2
7,"COc1cccc(CN2C(=O)N(c3ccc(-c4cn[nH]c4)cc3)CC2C(C)(C)O)c1 (single isomer, unassigned; (+)) [Example 45, (+)-1-(4-(1H-Pyrazol-4-yl)phenyl)-4-(2-hydroxypropan-2-yl)-3-(3-methoxybenzyl)imidazolidin-2-one]",< 0.002
8,"COc1nc(N2CCN(Cc3cccc(Cl)c3)C2=O)ccc1-c1cn[nH]c1 [Example 256, 1-(3-chlorobenzyl)-3-(6-methoxy-5-(1H-pyrazol-4-yl)pyridin-2-yl)imidazolidin-2-one]",0.0021 to 0.02
9,"CCc1cc(N2CC(C)(C)N(Cc3cccc(OC)c3)C2=O)ccc1-c1cn[nH]c1 [Example 148, 1-(3-ethyl-4-(1H-pyrazol-4-yl)phenyl)-3-(3-methoxy-benzyl)-4,4-dimethyl-imidazolidin-2-one]",0.0021 to 0.02
10,"CC1(C)CN(c2ccc(-c3cn[nH]c3)cc2)C(=O)N1Cc1cccc(F)c1 [Example 141, 1-(4-(1H-pyrazol-4-yl)phenyl)-3-(3-fluoro-benzyl)-4,4-dimethyl-imidazolidin-2-one]",0.0021 to 0.02
11,"COc1cc(N2CCN(CCc3ccc(F)cc3)C2=O)ccc1-c1cn[nH]c1 [Example 8, 1-(4-Fluorophenethyl)-3-(3-methoxy-4-(1H-pyrazol-4-yl)phenyl)imidazolidin-2-one]",0.2 to 2
12,"COc1cc(C(C)n2ccn(-c3ccc(-c4cn[nH]c4)c(OC)n3)c2=O)ccc1F (single isomer, unassigned) [Example 389, 1-(1-(4-fluoro-3-methoxyphenyl)ethyl)-3-(6-methoxy-5-(1H-pyrazol-4-yl)pyridin-2-yl)-1H-imidazol-2(3H)-one]",< 0.002
13,"O=C1CN(c2ccc(-c3cn[nH]c3)cc2)C(=O)N1Cc1ccccc1Cl [Example 111, 1-(4-(1H-pyrazol-4-yl)phenyl)-3-(2-chlorobenzyl) imidazolidine-2,4-dione]",0.0021 to 0.02
14,"CCOc1cccc(C(C)n2ccn(-c3ccc(-c4cn[nH]c4)cn3)c2=O)c1 (single isomer, unassigned) [Example 371, 1-(5-(1H-pyrazol-4-yl)pyridin-2-yl)-3-(1-(3-ethoxyphenyl)ethyl)-1H-imidazol-2(3H)-one]",0.0201 to 0.2
15,"O=C1CN(CCc2ccccc2)C(=O)N1c1ccc(-c2cn[nH]c2)cc1 [Example 85, 3-(4-(1H-pyrazol-4-yl)phenyl)-1-phenethylimidazolidine-2,4-dione]",0.2 to 2
16,"O=C1N(Cc2cccnc2)CCN1c1ccc(-c2cn[nH]c2)cn1 [Example 242, 1-(5-(1H-pyrazol-4-yl)pyridin-2-yl)-3-(pyridin-3-ylmethyl)imidazolidin-2-one]",0.2 to 2
17,"CNC(=O)C(c1ccccc1)N1CCN(c2ccc(-c3cn[nH]c3)cc2)C1=O (single isomer, unassigned) [Example 299, 2-(3-(4-(1H-pyrazol-4-yl)phenyl)-2-oxoimidazolidin-1-yl)-N-methyl-2-phenylacetamide]",0.0201 to 0.2
18,"COc1cc(N2CCN(Cc3ccccc3-c3cn[nH]c3)C2=O)ccc1-c1cn[nH]c1 [Example 31, 1-(2-(1H-Pyrazol-4-yl)benzyl)-3-(3-methoxy-4-(1H-pyrazol-4-yl)phenyl)imidazolidin-2-one, TFA]",0.0201 to 0.2
19,"O=c1n(Cc2cccc(F)c2F)ccn1-c1ccc(-c2cn[nH]c2)cc1 [Example 406, 1-(4-(1H-pyrazol-4-yl)phenyl)-3-(2,3-difluorobenzyl)-1H-imidazol-2(3H)-one]",0.0201 to 0.2
20,"COc1cccc(C(C)n2ccn(-c3ccc(-c4ccncc4F)cc3)c2=O)c1 (single isomer, unassigned) [Example 387, 1-(4-(3-fluoropyridin-4-yl)phenyl)-3-(1-(3-methoxyphenyl)ethyl)-1H-imidazol-2(3H)-one]",0.0201 to 0.2
21,"COc1nc(-n2ccn(CC3CCCO3)c2=O)ccc1-c1cn[nH]c1 (stereo not shown) [Example 418, 1-(6-methoxy-5-(1H-pyrazol-4-yl)pyridin-2-yl)-3-((tetrahydrofuran-2-yl)methyl)-1H-imidazol-2(3H)-one]",0.0201 to 0.2
22,"COc1cc(N2CCN(Cc3cccc(F)c3)C2=O)ccc1-c1cn[nH]c1 [Example 6, 1-(3-Fluorobenzyl)-3-(3-methoxy-4-(1H-pyrazol-4-yl)phenyl)imidazolidin-2-one]",0.0021 to 0.02
23,"CC(c1ccccc1)n1ccn(-c2ccc(-c3cn[nH]c3)cc2)c1=O (single isomer, unassigned; (+)) [Example 72, (+)-1-(4-(1H-pyrazol-4-yl)phenyl)-3-(1-phenylethyl)-1H-imidazol-2(3H)-one]",0.0021 to 0.02
24,"CCC1CN(c2ccc(-c3cn[nH]c3)cc2)C(=O)N1Cc1cc(F)cc(OC)c1 (stereo not shown) [Example 176, 1-(4-(1H-pyrazol-4-yl)phenyl)-4-ethyl-3-(3-fluoro-5-methoxy-benzyl) imidazolidin-2-one]",< 0.002
25,"COc1cc(F)cc(CN2CC(=O)N(c3ccc(-c4cn[nH]c4)c(OC)c3)C2=O)c1 [Example 94, 1-(3-fluoro-5-methoxybenzyl)-3-(3-methoxy-4-(1H-pyrazol-4-yl)phenyl)imidazolidine-2,4-dione, TFA]",0.0201 to 0.2

# More lines, now with the values ahead:
row,IC50 [µM],Compound
1,0.2 to 2,"COc1cc(N2C(=O)CN(Cc3ccccc3Cl)C2=O)ccc1-c1cn[nH]c1 [Example 89, 1-(2-chlorobenzyl)-3-(3-methoxy-4-(1H-pyrazol-4-yl)phenyl)imidazolidine-2,4-dione]"
2,0.0021 to 0.02,"O=c1n(Cc2cccc(OC(F)F)c2)ccn1-c1ccc(-c2cn[nH]c2)cc1 [Example 333, 1-(4-(1H-pyrazol-4-yl)phenyl)-3-(3-(difluoromethoxy)benzyl)-1H-imidazol-2(3H)-one]"
3,0.0021 to 0.02,"CC(c1cccc(OCC2CC2)c1)N1CCN(c2ccc(-c3cn[nH]c3)cc2)C1=O (single isomer, unassigned) [Example 196, 1-(4-(1H-pyrazol-4-yl)-phenyl)-3-(1-(3-(cyclo-propyl-methoxy)-phenyl)-ethyl)-imidazolidin-2-one]"
4,0.0201 to 0.2,"O=C(O)c1cccc(CN2CCN(c3ccc(-c4cn[nH]c4)cn3)C2=O)c1 [Example 239, 3-((3-(5-(1H-pyrazol-4-yl)pyridin-2-yl)-2-oxoimidazolidin-1-yl)methyl)benzoic acid]"
5,0.2 to 2,"O=C1N(Cc2ccccc2F)CCN1c1ccc(-c2ccncc2)cc1 [Example 57, 1-(2-fluorobenzyl)-3-(4-(pyridin-4-yl)phenyl)imidazolidin-2-one, TFA]"
6,< 0.002,"COc1cccc(C(C)n2ccn(-c3ccc(-c4cn[nH]c4)c(OC)n3)c2=O)c1 (single isomer, unassigned) [Example 400, 1-(6-methoxy-5-(1H-pyrazol-4-yl)pyridin-2-yl)-3-(1-(3-methoxyphenyl)ethyl)-1H-imidazol-2(3H)-one]"
7,< 0.002,"COc1cccc(C(CO)N2CCN(c3ccc(-c4cn[nH]c4)cn3)C2=O)c1 (single isomer, unassigned) [Example 461, 1-(5-(1H-pyrazol-4-yl)pyridin-2-yl)-3-(2-hydroxy-1-(3-methoxyphenyl)ethyl)imidazolidin-2-one]"
8,< 0.002,"COc1cc(F)cc(CN2CCN(c3ccc(-c4cn[nH]c4)c(F)c3)C2=O)c1 [Example 425, 1-(3-fluoro-4-(1H-pyrazol-4-yl)phenyl)-3-(3-fluoro-5-methoxybenzyl)imidazolidin-2-one]"
9,0.2 to 2,"COc1cccc(C(C(=O)O)N2CCN(c3ccc(-c4cn[nH]c4)cc3)C2=O)c1 (single isomer, unassigned) [Example 288, 2-(3-(4-(1H-Pyrazol-4-yl)phenyl)-2-oxoimidazolidin-1-yl)-2-(3-methoxyphenyl)acetic Acid]"
10,0.2 to 2,"CNC(=O)C(C)(c1cccc(OC)c1)N1CCN(c2ccc(-c3cn[nH]c3)cc2)C1=O (single isomer, unassigned) [Example 304, 2-(3-(4-(1H-Pyrazol-4-yl)phenyl)-2-oxoimidazolidin-1-yl)-2-(3-methoxyphenyl)-N-methylpropanamide]"
11,0.0021 to 0.02,"Cc1c(F)cccc1Cn1ccn(-c2ccc(-c3cn[nH]c3)cc2)c1=O [Example 402, 1-(4-(1H-pyrazol-4-yl)phenyl)-3-(3-fluoro-2-methylbenzyl)-1H-imidazol-2(3H)-one]"
12,0.0201 to 0.2,"CCc1cc(-n2ccn(C(CO)c3cccc(OC)c3)c2=O)ccc1-c1cn[nH]c1 (single isomer, unassigned) [Example 359, 1-(3-ethyl-4-(1H-pyrazol-4-yl)phenyl)-3-(2-hydroxy-1-(3-methoxyphenyl)ethyl)-1H-imidazol-2(3H)-one]"
